# Like-named read-outs stand apart in the source and are kept apart here.
# Key:
# [1] = Animal pharmacokinetics of gemcitabine; assay type: in vivo, swiss mice; conditions: for clearance: male, Swiss, mouse, plasma, intraperitoneal; for Gemcitabine exposure AUC0-60: gemcitabine 100 mg/kg intraperitoneally; for Increase in gemcitabine exposure in animals with inhibited CDA: inhibited CDA (THU) vs normal CDA
# Description: (§1) Parent-drug and difluorodeoxyuridine (dFdU) metabolite concentrations in plasma were assayed by UV-HPLC, as described in the literature (10). Elimination rate of gemcitabine was evaluated through a compartmental analysis and a stochastic model, using a home-built algorithm (11). Mean metabolization ratio for gemcitabine was calculated as follows: dFdU (μg/ml)/gemcitabine (μg/ml)×100. Carcass weights were monitored. Drug-induced leucopenia was the marker for gemcitabine-related toxicity. Leucocytes count was performed on day-0, then day-2, day-5 and day-8 post injection using Flow Cytometry analysis.
# adult cancer patients = assay: Treatment-related toxicities in adult cancer patients (NCI-CTC); assay type: in vivo, human
# Excerpt: A total of 150 cancer patients (130 adults—Table 1 and 20 children—Table 2) hospitalized at La Timone University Hospital of Marseille, France, from January 2007 to December 2008, were enrolled in this retrospective, observational study. Written informed consent and local ethic committee approval were obtained prior to performing CDA testing. Patients were divided into 3 subsets: […] These patients were mostly treated for pancreatic (n=40 patients) or gynaecological (n=7 patients) cancers. Other tumour types included liver, lung, vesical, or other localizations. In patients with digestive cancers, gemcitabine was administered as a fixed-dose rate infusion, whereas other patients received a standard rapid infusion. […] Remaining patients were given various drug combinations including capecitabine, fluorouracil (5-FU), herceptin, navelbine, sorafenib, axatinib, and erlotinib. Gemcitabine was given either as a rapid infusion or at fixed-dose rate infusion, depending on tumor location, as described previously. Twenty patients were treated for vesical-urothelial cancers. Other tumour types were pancreatic (n=12 patients), breast (n=12 patients), gynaecological (n=12 patients), and other, including lung, head and neck, liver, and other localisations. Toxicities were graded following the standard National Cancer Institute-Common Toxicity Criteria guidelines. Toxicities of grade ≧3 were regarded as “severe”.
# [2] = tested on: paediatric cancer patients; assay: Treatment-related toxicities in children; assay type: in vivo, human
# Excerpt: Subset 3: 20 patients (12 men/8 women; mean and SD age, 12±7 years) from the Pediatric Oncology Unit of La Timone University Hospital that had been previously treated with gemcitabine-based protocols had their CDA status phenotyped as well (Table 2). Most of these young patients were heavily pre-treated, and gemcitabine was mostly given as part of a Gemox protocol (n=14 patients), or associated with paclitaxel (n=3 patients) or with various other anticancer drugs (e.g.
# carboplatine, liposomal doxorubicin) or dexamethasone. In children, mean gemcitabine dose was 1028±190 mg/m^2 (minimum, 600 mg/m^2 —maximum, 1400 mg/m^2). Tumour types were extremely heterogeneous and included osteosarcoma, medulloblastoma, Ewing's sarcoma, and Hodgkin's syndrome.
# Toxicities were graded following the standard National Cancer Institute-Common Toxicity Criteria guidelines. Toxicities of grade ≧3 were regarded as “severe”. A toxic event was considered “early” when occurring […] the 1st or the 2nd day of the gemcitabine course, and was considered “late” when occurring after those days.
# [3] = tested on: pancreatic cancers and other digestive localizations; assay: Treatment efficacy in digestive cancer patients by CT imaging / CA19-9 at 3 months; assay type: in vivo, human; conditions: gemcitabine alone or combined
# Description: A total of 40 adult patients (21 men/19 women; 61±11 years old) with mostly pancreatic cancers (n=36 patients) and other digestive localizations (n=4 patients) were included in this retrospective study. All patients had been treated with gemcitabine alone (n=23 patients), associated with oxaliplatin (n=7 patients), erlotinib (n=2 patients), capecitabine (n=1 patient) or other drugs, including molecules used in target therapies (n=7 patients). Mean gemcitabine dose was 980 mg/m^2 (minimum: 500 mg/m^2, maximum: 1250 mg/m^2). CDA activity was measured spectrophotometrically from serum samples. Search for three genetic mutations (79A>C, 435T>C and 208G>A) was additionally performed. The cut-off associated with CDA extensiveness (extensive CDA activity) was set at 6 U/mg (e.g., >25% of the mean value of the population). Treatment efficacy was evaluated 3 month after beginning of the chemotherapy by CT imaging, with or without additional monitoring of the CA19-9 tumor marker.
# patients = conditions: cited from earlier work
# leucocytes = assay: Animal haematological toxicity monitoring (leucocytes count); assay type: in vivo, swiss mice; conditions: for Mean leucocytes count: day 5 after gemcitabine 100 mg/kg
# Description: as §1
# [4] = extensive subset (CDA>6 U/mg, n=8)
compound,measurement,setting,value
"Nc1ccn([C@@H]2O[C@H](CO)[C@@H](O)C2(F)F)c(=O)n1 [gemcitabine, 2′-deoxy-2′,2′-difluorocytidine]",clearance,[1],3.25 mL/min/kg
same,clearance,"[1]; 100 mg/kg, mice, normal CDA",12.6 mL/min/kg
same,Decrease of gemcitabine clearance,[1]; mice with altered CDA function (THU) vs normal,74%
same,Gemcitabine exposure AUC0-60,"[1]; mice, inhibited CDA (THU pre-treatment)",142 µg/mL/min
same,Gemcitabine exposure AUC0-60,"[1]; mice, normal CDA",54 µg/mL/min
same,Increase in gemcitabine exposure in animals with inhibited CDA,[1]; mice,~3 fold
same,Increase in gemcitabine exposure in animals with inhibited CDA,"[1]; mice, listed as Gemcitabine",2.6 fold
same,Patients with severe side-effects,"adult cancer patients; 66 extra-patients, gemcitabine in combination with another anticancer drug",14%
same,Patients with early severe toxicities,"adult cancer patients; 130 adult patients, gemcitabine-containing protocol, after first or second administration",12%
same,Patients with early severe toxicities,"adult cancer patients; Subset 1, gemcitabine alone, n=64",11%
same,"Anemia grade 3/4, Early","adult cancer patients; Subset 1, monotherapy, n=64",1 (1.6%) n (%)
same,"Anemia grade 3/4, Late","adult cancer patients; Subset 1, monotherapy, n=64",1 (1.6%) n (%)
same,"Asthenia grade 3/4, Early","adult cancer patients; Subset 1, monotherapy, n=64",1 (1.6%) n (%)
same,"Asthenia grade 3/4, Late","adult cancer patients; Subset 1, monotherapy, n=64",1 (1.6%) n (%)
same,"Diarrhea grade 3/4, Early","adult cancer patients; Subset 1, monotherapy, n=64",0 (0%) n (%)
same,"Diarrhea grade 3/4, Late","adult cancer patients; Subset 1, monotherapy, n=64",1 (1.6%) n (%)
same,"Leucopenia grade 3/4, Early","adult cancer patients; Subset 1, monotherapy, n=64",7 (11%) n (%)
same,"Leucopenia grade 3/4, Late","adult cancer patients; Subset 1, monotherapy, n=64",10 (16%) n (%)
same,"Neutropenia grade 3/4, Early","adult cancer patients; Subset 1, monotherapy, n=64",6 (9.6%) n (%)
same,"Neutropenia grade 3/4, Late","adult cancer patients; Subset 1, monotherapy, n=64",8 (12.8%) n (%)
same,"Sepsis grade 3/4, Early","adult cancer patients; Subset 1, monotherapy, n=64",3 (4.8%) n (%)
same,"Sepsis grade 3/4, Late","adult cancer patients; Subset 1, monotherapy, n=64",0 (0%) n (%)
same,"Thrombopenia grade 3/4, Early","adult cancer patients; Subset 1, monotherapy, n=64",2 (3.2%) n (%)
same,"Thrombopenia grade 3/4, Late","adult cancer patients; Subset 1, monotherapy, n=64",2 (3.2%) n (%)
same,Late/cumulative grade-3 anemia,"[2]; Subset 3, 20 children",20%
same,Late/cumulative grade-3 neutropenia,"[2]; Subset 3, 20 children",20%
same,Late/cumulative grade-3 thrombopenia,"[2]; Subset 3, 20 children",10%
same,Early severe toxicities,"[2]; Subset 3, 20 children, gemcitabine-based protocols",No early severe toxicities were observed
same,Tolerance,[2]; children,well tolerated
same,Non-responders with progressive disease,[3]; [4],75%
same,Patients with controlled disease,[3]; [4],25%
same,Patients with controlled disease,"[3]; non-extensive subset (CDA<6 U/mg, n=32)",84.5%
same,Severe toxicities reported,patients; gemcitabine given as a combination (polychemotherapy),15-30%
same,Severe toxicities reported,patients; gemcitabine monochemotherapy,5-10%
same,Outcome by day 8,leucocytes; CDA-deficient mice (THU),all animals were dead
same,Decrease of leucocytes count,"leucocytes; day 5, CDA-deficient mice (THU)",65%
same,Decrease of leucocytes count as compared with untreated animals,"leucocytes; day 5, mice with normal CDA activity",23%
same,Mean leucocytes count,leucocytes; CDA-deficient mice (THU),1.5 G/L
same,Mean leucocytes count,leucocytes; mice with normal CDA activity,3.2 G/L
same,Outcome by day 8,leucocytes; mice with normal CDA activity,all animals spontaneously recovered from their toxicities

# — US20130011392A1, “METHOD FOR ASSESSING THE ABILITY OF A PATIENT TO RESPOND TO OR BE SAFELY TREATED BY A NUCLEOSIDE ANALOG BASED-CHEMOTHERAPY” (Assistance Publique Hopitaux De Marseille, priority 2009, published 2013)
